Experimental findings from ChEMBL document CHEMBL1201862, “PubChem BioAssay data set” (2004) are described below.

Each structure is given as a SMILES string.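 Following 48 hours of exposure in 96-well plates, responses at five concentrations were used to interpolate endpoints linearly. GI50 = concentration required for 50% inhibition of growth.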 The source made the active and inactive calls. Cut-off read from the data, not from the text of the source: active = GI50 up to about 1.1 µM and inactive = higher.

Some test systems named below: M14; SNB-75; T47D; Malme-3M; MCF7; BT-549; SNB-19; OVCAR-5; SK-MEL-5; MDA-N; SR; UACC-257; K562; LOX IMVI; UACC-62; SW-620; OVCAR-8; NCI-H460; HOP-92.
Holding throughout (test): inhibition of tumour cell growth, NCI panel, 48 h

As for `Oc1ccc2c(c1)-c1c(c3ccccc3n1CCN1CCOCC1)CC2`, the GI50 in the test with M14 was 27.2 µM (inactive); with SNB-75, 27 µM (inactive); in the test on T47D it was 84.7 µM (inactive); in the test on Malme-3M, 31.3 µM (inactive); with MCF7, 37.2 µM (inactive); with BT-549 it was 43.7 µM (inactive). Besides, the GI50 in the test with SNB-19 was 38.6 µM (inactive); in the test with OVCAR-5, 23.9 µM (inactive); in the test with SK-MEL-5, 40.6 µM (inactive); in the test on MDA-N it was 33.7 µM (inactive); with SR it was > 100 µM (inactive); in the test on UACC-257, 27.9 µM (inactive). In addition, the GI50 is > 100 µM (inactive) in the test with K562; 39.7 µM (inactive) in the test on LOX IMVI; 27.5 µM (inactive) with UACC-62; > 10 µM (inactive) with SW-620; 33.2 µM (inactive) in the test on OVCAR-8; > 100 µM (inactive) in the test with NCI-H460.
`COc1cc2c(cc1OC)-c1cc3ccccc3c(=O)n1CCC2`: the GI50 was 14.8 µM (inactive) in the test with M14; 19.1 µM (inactive) in the test with SNB-75; 15.4 µM (inactive) in the test on HOP-92; 17.9 µM (inactive) in the test with T47D; 20 µM (inactive) with Malme-3M; 7.71 µM (inactive) in the test on MCF7. In addition, the GI50 with BT-549 was 13.1 µM (inactive); in the test with SNB-19, 18 µM (inactive); in the test on OVCAR-5, 45.7 µM (inactive); with SK-MEL-5, 11.4 µM (inactive); in the test with MDA-N, 3.56 µM (inactive); with UACC-257, 19.8 µM (inactive). The GI50 in the test on K562 was 3.21 µM (inactive); with LOX IMVI, 2.66 µM (inactive); in the test on UACC-62, 11.4 µM (inactive); with SW-620, 8.32 µM (inactive); with OVCAR-8, 9.35 µM (inactive); with NCI-H460, 1.76 µM (inactive).
Regarding `O=c1[nH]c(N/N=C\C(=N/Nc2nc3ccccc3c(=O)[nH]2)C(O)C(O)C(O)CO)nc2ccccc12` (centres undefined), the GI50 in the test with M14, with SNB-75, in the test with HOP-92, with T47D, in the test with MCF7 and in the test with BT-549 was > 100 µM (inactive) in each case. Further, the GI50 with SNB-19, in the test with OVCAR-5, in the test with SK-MEL-5, with MDA-N, with SR and in the test with UACC-257 was > 100 µM (inactive) throughout. Besides, the GI50 in the test with K562, with LOX IMVI, in the test on UACC-62, in the test with SW-620, in the test with OVCAR-8 and with NCI-H460 was > 100 µM (inactive) each time.
On to `Cc1cc(C2(c3cc(C)c(O)c4ncccc34)OC(=O)c3ccccc32)c2cccnc2c1O`, for which the GI50 in the test on M14 was 0.0625 µM (active); in the test on SNB-75 it was 0.069 µM (active); in the test on HOP-92, 0.252 µM (active); in the test on T47D it was 0.0382 µM (active); with Malme-3M, 1 µM (active); with MCF7, < 0.001 µM (active). Besides, the GI50 with BT-549 was 0.031 µM (active); in the test on SNB-19, 0.0174 µM (active); in the test with OVCAR-5, 11.3 µM (inactive); in the test with SK-MEL-5 it was 0.0231 µM (active); in the test with MDA-N, 0.00925 µM (active); in the test with UACC-257, 2.77 µM (inactive). Besides, the GI50 with K562 is 0.0776 µM (active); in the test on LOX IMVI, 0.00601 µM (active); in the test with UACC-62, 0.0158 µM (active); with SW-620, 0.0304 µM (active); in the test on OVCAR-8, 0.00615 µM (active); in the test with NCI-H460, < 0.001 µM (active).
Take `CCCCC1(NN=C2CCCCC2)C(=O)N(c2ccccc2)N(c2ccccc2)C1=O`: the GI50 in the test with M14, with SNB-75, in the test with T47D, in the test on MCF7, in the test with BT-549 and in the test on SNB-19 was > 100 µM (inactive) in each case. Moreover, the GI50 in the test with SK-MEL-5 is > 100 µM (inactive); in the test on MDA-N, > 100 µM (inactive); in the test with SR, 17.3 µM (inactive); in the test on UACC-257, > 100 µM (inactive); with K562 it was 30 µM (inactive); with UACC-62 it was > 100 µM (inactive). For the same compound, the GI50 with SW-620, in the test with OVCAR-8 and in the test on NCI-H460 was > 100 µM (inactive) in each case.
For the compound `NNC(=O)C(O)C(O)C(=O)NN` (centres undefined), the GI50 in the test on M14, in the test on SNB-75, with T47D, in the test with Malme-3M, with MCF7 and in the test on BT-549 was > 100 µM (inactive) in each case. In addition, the GI50 is > 100 µM (inactive) in the test with SNB-19; > 100 µM (inactive) with OVCAR-5; > 100 µM (inactive) with SK-MEL-5; > 100 µM (inactive) with MDA-N; 57.5 µM (inactive) in the test with SR; > 100 µM (inactive) in the test with UACC-257. The GI50 with K562 was 36.1 µM (inactive); with LOX IMVI, 65.9 µM (inactive); in the test with UACC-62 it was > 100 µM (inactive); with SW-620, > 100 µM (inactive); with OVCAR-8, > 100 µM (inactive).
As to `COC(=O)[C@@H]1CC(C(CN)c2cn(C(=O)OC(C)(C)C)c3ccccc23)C(=O)N1C(=O)OC(C)(C)C` (some centres undefined), the GI50 in the test on M14 was 50.7 µM (inactive); in the test with SNB-75 it was 6.31 µM (inactive); with T47D, 44.2 µM (inactive); in the test on Malme-3M, 22.2 µM (inactive); in the test with MCF7, 23.8 µM (inactive); in the test with BT-549, 31.6 µM (inactive). For the same compound, the GI50 with SNB-19 is 69.3 µM (inactive); in the test with OVCAR-5 it was 27.2 µM (inactive); with SK-MEL-5, 17.2 µM (inactive); in the test on MDA-N it was 20 µM (inactive); with SR it was 23.1 µM (inactive); in the test on UACC-257, 17.7 µM (inactive). The GI50 with K562 was 21.9 µM (inactive); in the test on LOX IMVI, 14.8 µM (inactive); with UACC-62 it was 15.1 µM (inactive); in the test with SW-620, 50.7 µM (inactive); with OVCAR-8 it was 21.7 µM (inactive); in the test with NCI-H460, 23.6 µM (inactive).
Take `CC1=CC(=O)/C(=C/n2c(=S)[nH]c3ccc([N+](=O)[O-])cc32)C(=O)O1`: the GI50 in the test with M14, with SNB-75, with HOP-92, with T47D, in the test on MCF7 and with BT-549 was > 100 µM (inactive) in each case. Also, the GI50 with SNB-19, in the test with OVCAR-5, with SK-MEL-5, in the test on MDA-N, in the test on SR and in the test with UACC-257 was > 100 µM (inactive) each time. Further, the GI50 in the test with K562, with LOX IMVI, in the test on UACC-62, with SW-620, in the test on OVCAR-8 and with NCI-H460 was > 100 µM (inactive) each time.
In the case of `Cc1cn([C@H]2C[C@@H]3[C@@H](COC(CCl)N3O)O2)c(=O)[nH]c1=O` (some centres undefined), the GI50 in the test on M14 was > 100 µM (inactive); with SNB-75, 87.9 µM (inactive); with T47D, > 100 µM (inactive); in the test with Malme-3M, 41.3 µM (inactive); in the test with MCF7, > 100 µM (inactive); in the test with BT-549, > 100 µM (inactive). In addition, the GI50 in the test with SNB-19, in the test on OVCAR-5, in the test with SK-MEL-5, in the test with MDA-N, in the test with SR and in the test on UACC-257 was > 100 µM (inactive) in each case. The GI50 in the test with K562, in the test with LOX IMVI, in the test with UACC-62, in the test with SW-620, in the test on OVCAR-8 and in the test with NCI-H460 was > 100 µM (inactive) throughout.
Turning to `CC(=O)O[C@@H]1C[C@@]2(C)[C@@H]3CC=C4[C@@H](C[C@H](O)C(=O)C4(C)C)[C@]3(C)C(=O)C[C@]2(C)[C@H]1[C@@](C)(O)C(=O)/C=C/C(C)(C)OC(C)=O`, the GI50 in the test on M14 is 0.592 µM (active); with SNB-75, 1.85 µM (inactive); in the test with HOP-92, 0.912 µM (active); with T47D it was 10.1 µM (inactive); in the test on MCF7, 3.57 µM (inactive); in the test with BT-549, 0.336 µM (active). For the same compound, the GI50 in the test on SNB-19 is 3.21 µM (inactive); with OVCAR-5, 12.8 µM (inactive); in the test on SK-MEL-5, 1.99 µM (inactive); in the test on MDA-N, 1.37 µM (inactive); in the test with SR, 3.33 µM (inactive); with UACC-257 it was 0.594 µM (active). Moreover, the GI50 in the test with K562 was 1.51 µM (inactive); with LOX IMVI, 2.74 µM (inactive); with UACC-62, 2.63 µM (inactive); in the test with SW-620 it was 0.516 µM (active); with OVCAR-8 it was 1.47 µM (inactive); in the test with NCI-H460 it was 0.428 µM (active).
On to `CC1C2(C)OC(=N)C(C#N)(C(c3cccc([N+](=O)[O-])c3)O2)C1(C#N)C#N` (centres undefined), for which the GI50 in the test on M14 is 19.1 µM (inactive); with SNB-75, 40.6 µM (inactive); in the test with HOP-92 it was 13.6 µM (inactive); in the test on T47D, 13.7 µM (inactive); with Malme-3M it was 26.2 µM (inactive); in the test on MCF7, 22.5 µM (inactive). The GI50 with BT-549 was 31 µM (inactive); in the test with SNB-19, 37.1 µM (inactive); in the test on OVCAR-5, 34.7 µM (inactive); in the test with SK-MEL-5, 8 µM (inactive); in the test on MDA-N, 16.5 µM (inactive); with UACC-257, 19.6 µM (inactive). Further, the GI50 in the test with K562 is 14.6 µM (inactive); in the test with LOX IMVI it was 16.9 µM (inactive); in the test with UACC-62, 17.9 µM (inactive); in the test with SW-620, 12.7 µM (inactive); with OVCAR-8, 29.6 µM (inactive); in the test on NCI-H460, 13.5 µM (inactive).
